Measurements from patent US8097650B2, “Method of treating a condition associated with phosphorylation of TASK-1” (The Trustees of Columbia University In The City of New York, priority 2005, dated 2012).

What was measured:
[1] = system: murine ventricular myocytes; assay: Arrhythmias induced by PKCε activator peptide in murine ventricular myocytes, rescue by TREK-1 activators; assay type: cell-based, mouse
Procedure: FIGS. 23A-23D. Activation of TREK-1 can overcome arrhythmias induced by inhibition of TASK-1. Isolated murine ventricular myocytes were studied in current clamp mode and paced at 1 Hz. The cells were studied in regular Tyrode's, pH 7.4. Recordings were begun immediately after rupture and continued for 12-15 min, with the 5.5 min time point illustrated. A PKCε-specific activator peptide (100 nM) was included in the patch pipette, which lead to inhibition of TASK-1 current and repolarization abnormalities (23A and 23B).
FIG. 25. Activation of TREK-1 can overcome arrhythmias induced by inhibition of TASK-1. Isolated murine ventricular myocytes were studied in current clamp mode and paced at 1 Hz. The cells were studied in regular Tyrode's, pH 7.4. Recordings were begun immediately after rupture and continued for 12-15 min. A PKCε-specific activator peptide (100 nM) […] or a scrambled control peptide (100 nM) (25A) was included in the patch pipette. After the activator peptide had induced repolarization abnormalities (25B left panel), a TREK-1 activator, ONO-RS-082 (100 nM) was added to the superfusion.
Isolated murine ventricular myocytes were studied in current clamp mode and paced at 1 Hz. The cells were studied in regular Tyrode's, pH 7.4, and recordings were begun immediately after rupture and continued for 12-15 min, with the 5.5 min timepoint illustrated. As shown in FIGS. 23A and 23B, a PKCε-specific activator peptide (100 nM) was included in the patch pipette which lead to inhibition of TASK-1 current and repolarization abnormalities.

[2] = system: murine TASK-1 T381A mutant; assay: T381A mutant TASK-1 current in CHO cells; assay type: cell-based, mouse; settings: +30 mV, C-PAF 185 nM
Procedure: pCMV-TASK1 (cTBAK) consists of a 1.9 kb sequence of murine TASK-1 inserted in pcDNA3.1 (a kind gift of Dr. Yoshihisa Kurachi, University of Osaka, Japan) and has been previously described (Leonoudakis D et al. (1998) J Neurosci 18: 868-877). pEGFP-C1 and pIRES-EGFP were purchased from Clontech. pTIE (TASK1-IRES-EGFP) was constructed by inserting a 1.9 kb EcoR1 fragment from pCMV-TASK1 into EcoR1 digested pIRES-EGFP. Site-directed mutagenesis was performed on pTIE using the Quik-Change kit (Stratagene) following the manufacturer's instructions. […]
Cells were either co-transfected with pCMV-TASK1 together with pEGFP-C1 (1 μg total, 3:1) or transfected with […] or T381A-pTIE (1 μg). 48 h after the transfection the cells were checked under the microscope for green fluorescence. […]
The myocyte suspension or the coverslip with CHO cells was placed into a perfusion chamber, mounted on the stage of an inverted microscope. […] Membrane potential and current were measured in the whole cell configuration using borosilicate glass pipettes with a tip resistance between […] and filled with a pipette solution containing (mM): aspartic acid, 130; KOH, 146; NaCl, 10; CaCl2, 2; EGTA, 5; HEPES, 10; MGATP, 2; pH 7.2. […] Myocytes treated with the peptides were monitored continuously beginning immediately after rupture to detect the occurrence of any arrhythmias during dialysis of the peptide. […]

Compound | effect on established peptide-induced arrhythmia ([1]; ONO-RS-082 100 nM in superfusion) | rhythm after washout of drug ([1]; ONO-RS-082 removed) | maximal current in the presence of C-PAF [2] [pA/pF]
CCCCCc1ccc(C=CC(=O)Nc2cc(Cl)ccc2C(=O)O)cc1 [ONO-RS-082] | promptly reversed the arrhythmia | the arrhythmias recurred | –
CCCCCCCCCCCCCCCCOC[C@H](COP(=O)([O-])OCC[N+](C)(C)C)OC(=O)NC [C-PAF, carbamyl-platelet-activating factor] | – | – | 44.2±7
